Data reported in patent US20070185215A1, “Pharmaceutical composition containing obovatol as an active ingredient for the prevention and treatment of neurodegenerative diseases” (priority 2006, published 2007).

How the values were obtained:
[1] = tested on: BV-2 murine microglial cell line; assay: Inhibition of nitric oxide production in LPS-activated microglia (Griess reaction); type: cell-based; conditions: BV-2 cells, 100 ng/ml LPS, 24 hours
Experimental: (§1) The BV-2 murine microglial cell line, obtained from Prof. Eui-Ju, Choi, School of Life Sciences and Technology in Korea University, Korea, was treated with 100 ng/ml of LPS (lipopolysaccharide), known to activate microglial cells, in the presence of 1 μg/ml or 10 μg/ml obovatol for 24 hours, and then the nitric oxides secreted into the culture media were quantitatively analyzed using a Griess reaction method to determine the activity of the microglia. In detail, 50 μl of the microglial culture medium was reacted with 50 μl of the Griess reagent [1% sulfanilamide/0.1% naphthylethylene diamine dihydrochloride/2% phosphoric acid] at room temperature for 10 min, followed by measuring absorbance at 540 nm with the aid of a microplate reader (Anthos Labtec Instruments GmbH Salzburg, Austria). For comparison, magnolol, known to have a neuroprotective effect, was also tested in the same manner. Using NaNO2 as a standard material, inhibition rates of the test materials were calculated for the production of nitric oxides. Also, MTT assay was conducted to measure cytotoxicity in order to determine whether or not the inhibitory activity against microglial activity was attributed to cytotoxicity.

[2] = tested on: BV-2 murine microglial cell line; assay: MTT assay for cytotoxicity; type: cell-based; conditions: concentrations as high as 30˜50 μg/ml
Experimental: as §1

SD rats = assay: Acute oral toxicity assay in rats; type: in vivo
Experimental: Using six-week-old specific pathogen-free (SPF) SD rats, an acute toxicity assay was conducted. The rats were divided into groups of two rats. After being dissolved in injectable saline, the obovatol, obtained in Example 1, was orally administered once in a dosage of 1 g/kg/ml to the rat groups. Afterwards, observations were made of the death, clinical symptoms, and weight changes of the animals, and serological and serobiochemical assays were conducted. Also, an autopsy was carried out to examine abnormalities of the abdominal and thoracic organs with the naked eye.

[3] = Solubility (physical and chemical properties); type: physicochemical

Row | Molecule | inhibition at 1 µg/mL ([1]; Mus musculus, 1 μg/ml compound, read-out: Inhibition Rates (%) of Nitric Oxide Production) | inhibition at 10 µg/mL ([1]; Mus musculus, 10 μg/ml compound, read-out: Inhibition Rates (%) of Nitric Oxide Production) | Inhibition Rates (%) of Nitric Oxide Production ([1]; 1 μg/ml compound) | Inhibition Rates (%) of Nitric Oxide Production ([1]; 10 μg/ml compound) | Cytotoxicity as measured by MTT assay [2] | Noticeable clinical symptoms or death (SD rats; SD rats, oral, once, 1 g/kg/ml) | Toxicity in weight change, serological assay, serobiochemical assay, autopsy observations (SD rats; SD rats, oral, once, 1 g/kg/ml) | Dose causing no toxic effects (SD rats; rat, in vivo, po) | Solubility ([3]; Alcohol, DMSO) | Solubility ([3]; Hexane, water)
1 | C=CCc1ccc(O)c(-c2cc(CC=C)ccc2O)c1 [Magnolol, magnolol, reference compound] | 13.1% | 59% | – | – | – | – | – | – | – | –
2 | obovatol | – | – | 29.8% | 83.3% | did not exhibit cytotoxicity | None of the animals | not observed | ≤ 500 mg/kg | Soluble | Insoluble
